Source: BindingDB's records for doi:10.3109/14756366.2010.616860 (Slovak University of Technology, 2012)
Several values for one entry are separate records, joined by “and”; a condition that tells them apart may be missing. Equal values may be shown once.

Legend:
Assay in all cases: Enzyme Assay
Conditions in all cases: pH 8
[1] = target: Urokinase-type plasminogen activator (Homo sapiens, UniProt P00749)
Description: (§1) Data scanning time was set to the 1st and 61st minute after the reaction start. Rutin, esculin, phloridzin and their esters were initially solubilized at a concentration of 10 mM in dimethyl sulphoxide (DMSO) and subsequently incorporated in the reaction mixture to final concentrations in the range of 1-50 μM. Samples were run in triplicate in 96-well plates by MRX microplate reader. Each experiment was performed in triplicate.

[2] = target: Prothrombin (Bos taurus, UniProt P00735)
Description: as §1

[3] = target: T1, Serine protease 1 (Bos taurus, UniProt P00760)
T1 sequence (P00760 whole entry): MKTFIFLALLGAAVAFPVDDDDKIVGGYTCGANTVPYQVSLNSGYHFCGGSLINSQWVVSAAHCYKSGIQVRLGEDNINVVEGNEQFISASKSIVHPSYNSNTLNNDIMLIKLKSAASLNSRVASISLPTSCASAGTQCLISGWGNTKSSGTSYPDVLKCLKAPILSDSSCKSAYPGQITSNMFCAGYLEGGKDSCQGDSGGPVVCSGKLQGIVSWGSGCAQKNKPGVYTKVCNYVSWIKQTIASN
Description: as §1

[4] = target: Chymotrypsin-like elastase family member 1 (Pig, UniProt P00772)
Description: as §1

Chymotrypsin-like elastase family member 1, sequence (P00772 whole entry): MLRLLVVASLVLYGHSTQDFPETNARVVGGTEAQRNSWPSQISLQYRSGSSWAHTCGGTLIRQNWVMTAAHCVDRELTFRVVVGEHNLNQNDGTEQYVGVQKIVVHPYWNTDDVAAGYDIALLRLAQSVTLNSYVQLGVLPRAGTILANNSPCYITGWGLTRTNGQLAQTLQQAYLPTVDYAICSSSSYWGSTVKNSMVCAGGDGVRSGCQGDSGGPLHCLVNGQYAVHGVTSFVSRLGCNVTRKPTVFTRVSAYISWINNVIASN

Compound | IC50 [1] | IC50 [2] | IC50 [3] | IC50 [4]
O=c1c(O)c(-c2ccc(O)c(O)c2)oc2cc(O)cc(O)c12 [2-(3,4-dihydroxyphenyl)-3,5,7-trihydroxy-chromone;hydrate] | 20 µM | – | – | –
N=C(N)Nc1ccc(C(=O)O)cc1 [4-Guanidinobenzoate] | 20 µM | 400 µM | 450 µM | 500 µM
CCCCCCCCCCCC(=O)OCC1OC(Oc2cc3ccc(=O)oc3cc2O)C(O)C(O)C1O (stereo not given) [Esculin laurate] | 100 µM | 60 µM | 350 µM | 20 µM
CCCCCCCCCCCCCC(=O)OCC1OC(Oc2cc3ccc(=O)oc3cc2O)C(O)C(O)C1O (stereo not given) [Esculin myristate] | 100 µM | 54 µM | 120 µM | 25 µM
CCCCCCCCCCCCCCCC(=O)OCC1OC(Oc2cc3ccc(=O)oc3cc2O)C(O)C(O)C1O (stereo not given) [Esculin palmitate] | 100 µM | 54 µM | 210 µM | 30 µM
CCCCCCCCCCCCCCCCCC(=O)OCC1OC(Oc2cc3ccc(=O)oc3cc2O)C(O)C(O)C1O (stereo not given) [Esculin stearate] | 89 µM | 52 µM | 50 µM | 60 µM
O=c1ccc2cc(OC3OC(CO)C(O)C(O)C3O)c(O)cc2o1 (stereo not given) [Esculin] | 25 µM | 250 µM | 150 µM | 100 µM
CCCCCCCCCCCC(=O)OCC1OC(Oc2cc(O)cc(O)c2C(=O)CCc2ccc(O)cc2)C(O)C(O)C1O (stereo not given) [Phloridzin laurate] | 9 µM | 70 µM | 55 µM | > 500 µM
CCCCCCCCCCCCCC(=O)OCC1OC(Oc2cc(O)cc(O)c2C(=O)CCc2ccc(O)cc2)C(O)C(O)C1O (stereo not given) [Phloridzin myristate] | 33 µM | 75 µM | 65 µM | > 500 µM
CCCCCCCCCCCCCCCC(=O)OCC1OC(Oc2cc(O)cc(O)c2C(=O)CCc2ccc(O)cc2)C(O)C(O)C1O (stereo not given) [Phloridzin palmitate] | 18 µM | 75 µM | 60 µM | > 500 µM
CCCCCCCCCCCCCCCCCC(=O)OCC1OC(Oc2cc(O)cc(O)c2C(=O)CCc2ccc(O)cc2)C(O)C(O)C1O (stereo not given) [Phloridzin stearate] | 13 µM | 65 µM | 215 µM | > 500 µM
O=C(CCc1ccc(O)cc1)c1c(O)cc(O)cc1OC1OC(CO)C(O)C(O)C1O (stereo not given) [Phloridzin] | 80 µM | 320 µM | 90 µM | 100 µM
CCCC(=O)OC1C(C)OC(OCC2OC(Oc3c(-c4ccc(O)c(O)c4)oc4cc(O)cc(O)c4c3=O)C(O)C(O)C2O)C(O)C1O (stereo not given) [Rutin butyrate] | 8 µM | 22 µM | > 500 µM | > 500 µM
CCCCCC(=O)OC1C(C)OC(OCC2OC(Oc3c(-c4ccc(O)c(O)c4)oc4cc(O)cc(O)c4c3=O)C(O)C(O)C2O)C(O)C1O (stereo not given) [Rutin caproate] | 14 µM and 20 µM | 32 µM | > 500 µM | > 500 µM
CCCCCCCC(=O)OC1C(C)OC(OCC2OC(Oc3c(-c4ccc(O)c(O)c4)oc4cc(O)cc(O)c4c3=O)C(O)C(O)C2O)C(O)C1O (stereo not given) [Rutin caprylate] | 32 µM | 25 µM | > 500 µM | > 500 µM
CCCCCCCCCCCC(=O)OC1C(C)OC(OCC2OC(Oc3c(-c4ccc(O)c(O)c4)oc4cc(O)cc(O)c4c3=O)C(O)C(O)C2O)C(O)C1O (stereo not given) [Rutin laurate] | 50 µM | 14 µM | 90 µM | > 500 µM
CC/C=C\C/C=C\C/C=C\CCCCCCCC(=O)OC1C(C)OC(OCC2OC(Oc3c(-c4ccc(O)c(O)c4)oc4cc(O)cc(O)c4c3=O)C(O)C(O)C2O)C(O)C1O (stereo not given) [Rutin linolenate] | 20 µM | 7 µM | 50 µM | > 500 µM
CCCCCCCCCCCCCC(=O)OC1C(C)OC(OCC2OC(Oc3c(-c4ccc(O)c(O)c4)oc4cc(O)cc(O)c4c3=O)C(O)C(O)C2O)C(O)C1O (stereo not given) [Rutin myristate] | 15 µM | 10 µM | 130 µM | > 500 µM
CCCCCCCC/C=C\CCCCCCCC(=O)OC1C(C)OC(OCC2OC(Oc3c(-c4ccc(O)c(O)c4)oc4cc(O)cc(O)c4c3=O)C(O)C(O)C2O)C(O)C1O (stereo not given) [Rutin oleate] | 25 µM | 9 µM | 60 µM | > 500 µM
CCCCCCCCCCCCCCCC(=O)OC1C(C)OC(OCC2OC(Oc3c(-c4ccc(O)c(O)c4)oc4cc(O)cc(O)c4c3=O)C(O)C(O)C2O)C(O)C1O (stereo not given) [Rutin palmitate] | 15 µM | 3 µM | 40 µM | > 500 µM
CCCCCCCCCCCCCCCCCC(=O)OC1C(C)OC(OCC2OC(Oc3c(-c4ccc(O)c(O)c4)oc4cc(O)cc(O)c4c3=O)C(O)C(O)C2O)C(O)C1O (stereo not given) [Rutin stearate] | 15 µM | 8 µM | 40 µM | > 500 µM
CC1OC(OCC2OC(Oc3c(-c4ccc(O)c(O)c4)oc4cc(O)cc(O)c4c3=O)C(O)C(O)C2O)C(O)C(O)C1O (stereo not given) [Rutin] | 6 µM | 25 µM | 40 µM | 100 µM
